Data on one compound can be found in patent US6825193B2, “Citric acid salt of a therapeutic compound and pharmaceutical compositions thereof” (Pfizer Inc., priority 2001, dated 2004).

Structures are written as SMILES. Entries after “also recorded” stand apart in the source; their conditions may differ. Where a name gives a salt, the structure may show the parent alone.

What all share (type): physicochemical
A short description of data set [1]: Aqueous solubility and native pH in aqueous solution.
Data set [2] is described as follows: Hygroscopicity on exposure to 90% relative humidity in a moisture chamber.
Data set [3] in a line: Solid state stability (light, elevated temperature, high humidity challenges). Particulars: elevated temperatures.
A short description of data set [4]: Compatibility with drug product formulation excipients.

For `CN1CCN(c2ccccc2/C=C2\SCCN(c3ccc(Cl)c(Cl)c3)C2=O)CC1` [citrate salt, 4-(3,4-dichlorophenyl)-2-[2-(4-methylpiperazin-1-yl)-benzylidene]-thiomorpholin-3-one], in data set [1], the “aqueous solubility (in words)” value is on record as “high aqueous solubility”. Besides, the “native pH in aqueous solution” value in data set [1] (aqueous solution at solubility 1.3 mg/ml) came out at 3.37. Besides, in data set [1] (water, native pH 3.37), the solubility (as a rule, the dissolved amount per volume that the medium holds) came out at 1300 µg/mL. The “hygroscopicity (in words)” value in data set [2] is “only slightly hygroscopic”. Besides, the hygroscopicity result in data set [2] (at 90% relative humidity) was “approximately 1.27%”; in data set [2] (on exposure to 90% relative humidity in a moisture chamber), “approximately 1.27 % wt/wt”. In addition, the “solid state stability (in words)” value in data set [3] was “excellent solid state stability; also recorded: superior to previously known salts”. Also, the “inertness / compatibility towards common formulation excipients (in words)” value in data set [4] was “relative inertness towards common excipients; also recorded: superior to previously known salts”.
